Measured values: patent US20210220489A1, “AMYGDALAR NEURAL ENSEMBLE THAT ENCODES THE UNPL[…] PAIN” (The Board of Trustees of the Leland Stanford Junior …, priority 2020, published 2021)

Assays:
[1] = system: neuropathic TRAP^hM4 mice; test: Neuropathic (spared nerve injury) reflexive and affective-motivational pain behaviors; type: in vivo; details: day 42 postinjury
Description: To induce a chronic pain state, we used a modified version of the Spared Nerve Injury (SNI) model of neuropathic pain, as previously described (70). This model entails surgical section of two of the sciatic nerve branches (common peroneal and tibial branches) while sparing the third (sural branch). […] To perform this peripheral nerve injury procedure, anesthesia was induced and maintained throughout surgery with isoflurane (4% induction, 1.5% maintenance in oxygen). The left hind leg was shaved and wiped clean with alcohol and betadine. We made a 1-cm incision in the skin of the mid-dorsal thigh, approximately where the sciatic nerve trifurcates. […] Mice were then returned to their home cage and closely monitored over the following three days for well-being.
We habituated mice inside individual red plastic cylinders (10.16-cm D) on a raised flat, perforated metal platform (60.96-cm H) for 3 days prior to the start of behavioral sensory testing. After basal thermal and mechanical thresholds were measured, mice underwent a peripheral nerve injury surgery (Spared Nerve Injury, SNI; see “Chronic neuropathic pain model” above for details of the surgical procedure). […]

o-TRAP^hM4 mice = test: Pain behaviors evoked by optogenetic activation of nociceptors (o-TRAP^hM4); type: in vivo; details: noxious transdermal light stimuli
Description: Different AAV serotypes display unique infection tropisms. […] To express the light-sensitive cation channel channelrhodopsin2 (ChR2) in putative primary afferent nociceptors, we intrathecally injected AAV6-hSyn-ChR2(H134R)-eYFP immediately following the i.c. BLA injections of AAV-DIO-DREADD(Gi)-mCherry in TRAP mice while remaining anesthetized under isoflurane (1-2% maintenance). Specifically, we shaved a small patch of fur on the back, wiped with alcohol and Betadine, and then inserted a 33G beveled needle connected to a WPI Nanofil syringe between the L5/L6 vertebrae and through the dura (confirmation by presence of reflexive tail flick). We slowly administered the virus was over 20 s. We retuned mice to their home cage for 4-6 weeks before behavioral verification of ChR2 expression. […] As we sought expression in lumbar DRGs for the purposes of our behavioral experiments that involve sensory testing on the hind limbs, we performed a behavioral screening of each mouse for transdermal light-responsivity when light was applied to the hindpaw. We placed mice inside individual red plastic cylinders (10.16-cm D) on a thin glass surface. […] We measured whether an immediate nociceptive hindpaw reflex and/or pain affective-motivational behaviors (described below) occurred in response to the light indicated ChR2 expression in nociceptors. […]

With `C[N+]1([O-])CCN(C2=Nc3cc(Cl)ccc3Nc3ccccc32)CC1` [CNO, clozapine-N-oxide] the reflexive hypersensitivity [1] was “did not alter”, the neuropathic affective-motivational behaviors ([1]; regardless of stimulus intensity or modality) was “profound decrease” and the “attending and escape behaviors” value (o-TRAP^hM4 mice) was “reduces”.
